Assay results reported in patent US20250230165A1, “HETEROCYCLIC COMPOUNDS FOR USE IN THE TREATMENT OF CANCER” (ARTIOS PHARMA LIMITED, priority 2021, published 2025).

Biological target: T1, Human Polθ polymerase domain (aa1820-2590) (Homo sapiens, UniProt O75417)
T1 construct: Human Polθ polymerase domain (aa1820-2590) was expressed in E. coli; made in house; host or cells: E. coli
T1 sequence (O75417 1820-2590): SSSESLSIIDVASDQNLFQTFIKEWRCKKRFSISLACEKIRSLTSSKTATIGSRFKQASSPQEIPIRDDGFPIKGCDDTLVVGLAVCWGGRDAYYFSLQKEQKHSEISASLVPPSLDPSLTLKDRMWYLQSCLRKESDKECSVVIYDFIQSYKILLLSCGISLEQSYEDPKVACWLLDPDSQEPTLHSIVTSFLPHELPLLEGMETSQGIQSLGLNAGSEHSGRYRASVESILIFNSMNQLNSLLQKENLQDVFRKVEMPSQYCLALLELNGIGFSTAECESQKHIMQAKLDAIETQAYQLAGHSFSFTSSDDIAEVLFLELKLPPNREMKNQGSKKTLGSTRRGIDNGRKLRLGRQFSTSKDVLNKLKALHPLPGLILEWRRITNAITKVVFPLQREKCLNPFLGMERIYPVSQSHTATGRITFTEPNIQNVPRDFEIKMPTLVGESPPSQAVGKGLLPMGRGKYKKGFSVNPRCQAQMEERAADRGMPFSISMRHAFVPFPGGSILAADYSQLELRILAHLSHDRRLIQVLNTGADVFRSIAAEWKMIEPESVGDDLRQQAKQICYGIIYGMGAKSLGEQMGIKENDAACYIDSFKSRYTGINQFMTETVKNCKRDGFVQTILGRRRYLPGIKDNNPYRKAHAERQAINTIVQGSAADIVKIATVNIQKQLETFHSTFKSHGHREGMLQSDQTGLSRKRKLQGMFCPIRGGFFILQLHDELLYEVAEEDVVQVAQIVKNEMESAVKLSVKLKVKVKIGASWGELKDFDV
Test: Polθ Polymerase Domain Kinact/KI Assay (PicoGreen)
Format: biochemical
Conditions: 0.8 nM Polθ, 100 nM DNA substrate, kobs vs [I] fit for 2-step covalent inhibitor
How it was run: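 Time-dependent inhibition was followed by quenching reactions with EDTA at points up to 60 min, then staining product DNA with PicoGreen fluorescence. Reactions held 0.8 nM E. coli-expressed Polθ, 100 nM primed DNA substrate and […] at pH 7.5, 1% DMSO. kobs versus inhibitor concentration gave Kinact and KI.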

| SMILES | Kinact/Kl |
| --- | --- |
| C=CC(=O)N1Cc2ncn(CCN3C[C@H]4CC(=O)N(c5cc(C(F)(F)F)cc(C)n5)[C@@H]4C(=O)N(C)c4cccc(Cl)c43)c2C1 [Example 259, (3aR,11aS)-5-(2-(5-acryloyl-5,6-dihydropyrrolo[3,4-d]imidazol-1(4H)-yl)ethyl)-6-chloro-10-methyl-1-(6-methyl-4-(trifluoromethyl)pyridin-2-yl)-1,3a,4,5,10,11a-hexahydro-2H-benzo[b]pyrrolo[2,3-f][1,4]diazocine-2,11(3H)-dione] | 150000 M⁻¹ s⁻¹ |
| C=CC(=O)N1CCN(CCN2C[C@H]3CC(=O)N(c4cc(C(F)(F)F)cc(C)n4)[C@@H]3C(=O)N(C)c3cccc(C)c32)[C@@H](C)C1 [Example 260, (3aR,11aS)-5-(2-((S)-4-acryloyl-2-methylpiperazin-1-yl)ethyl)-6,10-dimethyl-1-(6-methyl-4-(trifluoromethyl)pyridin-2-yl)-1,3a,4,5,10,11a-hexahydro-2H-benzo[b]pyrrolo[2,3-f][1,4]diazocine-2,11(3H)-dione] | 1.54e+06 M⁻¹ s⁻¹ |
| C=CC(=O)N1CC2CC(C1)N2CCN1C[C@H]2CC(=O)N(c3cc(C(F)(F)F)cc(C)n3)[C@@H]2C(=O)N(C)c2cccc(C)c21 [Example 261, (3aR,11aS)-5-(2-(3-acryloyl-3,6-diazabicyclo[3.1.1]heptan-6-yl)ethyl)-6,10-dimethyl-1-(6-methyl-4-(trifluoromethyl)pyridin-2-yl)-1,3a,4,5,10,11a-hexahydro-2H-benzo[b]pyrrolo[2,3-f][1,4]diazocine-2,11(3H)-dione] | 340000 M⁻¹ s⁻¹ |
| C=CC(=O)N1CC2CCC(C1)N2CCN1C[C@H]2CC(=O)N(c3cc(C(F)(F)F)cc(C)n3)[C@@H]2C(=O)N(C)c2cccc(C)c21 [Example 262, (3aR,11aS)-5-(2-(3-acryloyl-3,8-diazabicyclo[3.2.1]octan-8-yl)ethyl)-6,10-dimethyl-1-(6-methyl-4-(trifluoromethyl)pyridin-2-yl)-1,3a,4,5,10,11a-hexahydro-2H-benzo[b]pyrrolo[2,3-f][1,4]diazocine-2,11(3H)-dione] | 710000 M⁻¹ s⁻¹ |
| C=CC(=O)N1C[C@H]2C[C@@H]1CN2CCN1C[C@H]2CC(=O)N(c3cc(C(F)(F)F)cc(C)n3)[C@@H]2C(=O)N(C)c2cccc(C)c21 [Example 263, (3aR,11aS)-5-(2-((1R,4R)-5-acryloyl-2,5-diazabicyclo[2.2.1]heptan-2-yl)ethyl)-6,10-dimethyl-1-(6-methyl-4-(trifluoromethyl)pyridin-2-yl)-1,3a,4,5,10,11a-hexahydro-2H-benzo[b]pyrrolo[2,3-f][1,4]diazocine-2,11(3H)-dione] | 1.06e+06 M⁻¹ s⁻¹ |
| C#CC(=O)N1CCN(CCN2C[C@H]3CC(=O)N(c4cc(C(F)(F)F)cc(C)n4)[C@@H]3C(=O)N(C)c3cccc(C)c32)CC1 [Example 264, (3aR,11aS)-6,10-dimethyl-1-(6-methyl-4-(trifluoromethyl)pyridin-2-yl)-5-(2-(4-propioloylpiperazin-1-yl)ethyl)-1,3a,4,5,10,11a-hexahydro-2H-benzo[b]pyrrolo[2,3-f][1,4]diazocine-2,11(3H)-dione] | 1.25e+06 M⁻¹ s⁻¹ |
| C=CC(=O)N1CCN(CCCN2C[C@H]3CC(=O)N(c4cc(C(F)(F)F)cc(C)n4)[C@@H]3C(=O)N(C)c3cccc(Cl)c32)CC1 [Example 266, (3aR,11aS)-5-(3-(4-acryloylpiperazin-1-yl)propyl)-6-chloro-10-methyl-1-(6-methyl-4-(trifluoromethyl)pyridin-2-yl)-1,3a,4,5,10,11a-hexahydro-2H-benzo[b]pyrrolo[2,3-f][1,4]diazocine-2,11(3H)-dione] | 590000 M⁻¹ s⁻¹ |
| C=CC(=O)N1CCC[C@@H]1c1noc(CN2C[C@H]3CC(=O)N(c4cc(C(F)(F)F)cc(C)n4)[C@@H]3C(=O)N(C)c3cccc(C)c32)n1 [Example 268, (3aR,11aS)-5-((3-((R)-1-acryloylpyrrolidin-2-yl)-1,2,4-oxadiazol-5-yl)methyl)-6,10-dimethyl-1-(6-methyl-4-(trifluoromethyl)pyridin-2-yl)-1,3a,4,5,10,11a-hexahydro-2H-bez[b]pyrrolo[2,3-f][1,4]diazocine-2,11(3H)-dione] | 410000 M⁻¹ s⁻¹ |

The remaining lines, values ahead:

| Kinact/Kl | SMILES |
| --- | --- |
| 970000 M⁻¹ s⁻¹ | C=CC(=O)N1CCC[C@H]1c1noc(CN2C[C@H]3CC(=O)N(c4cc(C(F)(F)F)cc(C)n4)[C@@H]3C(=O)N(C)c3cccc(C)c32)n1 [Example 269, (3aR,11aS)-5-((3-((S)-1-acryloylpyrrolidin-2-yl)-1,2,4-oxadiazol-5-yl)methyl)-6,10-dimethyl-1-(6-methyl-4-(trifluoromethyl)pyridin-2-yl)-1,3a,4,5,10,11a-hexahydro-2H-benzo[b]pyrrolo[2,3-f][1,4]diazocine-2,11(3H)-dione] |
| 110000 M⁻¹ s⁻¹ | C=CC(=O)N1CCC[C@@H]1c1nc(CN2C[C@H]3CC(=O)N(c4cc(C(F)(F)F)cc(C)n4)[C@@H]3C(=O)N(C)c3cccc(C)c32)no1 [Example 270, (3aR,11aS)-5-((5-((R)-1-acryloylpyrrolidin-2-yl)-1,2,4-oxadiazol-3-yl)methyl)-6,10-dimethyl-1-(6-methyl-4-(trifluoromethyl)pyridin-2-yl)-1,3a,4,5,10,11a-hexahydro-2H-benzo[b]pyrrolo[2,3-f][1,4]diazocine-2,11(3H)-dione] |
| 200000 M⁻¹ s⁻¹ | C=CC(=O)N1CCC[C@H]1c1nc(CN2C[C@H]3CC(=O)N(c4cc(C(F)(F)F)cc(C)n4)[C@@H]3C(=O)N(C)c3cccc(C)c32)no1 [Example 271, (3aR,11aS)-5-((5-((S)-1-acryloylpyrrolidin-2-yl)-1,2,4-oxadiazol-3-yl)methyl)-6,10-dimethyl-1-(6-methyl-4-(trifluoromethyl)pyridin-2-yl)-1,3a,4,5,10,11a-hexahydro-2H-benzo[b]pyrrolo[2,3-f][1,4]diazocine-2,11(3H)-dione] |
| 33000 M⁻¹ s⁻¹ | C=CC(=O)N1CCC[C@@H]1c1nnc(CN2C[C@H]3CC(=O)N(c4cc(C(F)(F)F)cc(C)n4)[C@@H]3C(=O)N(C)c3cccc(C)c32)o1 [Example 272, (3aR,11aS)-5-((5-((R)-1-acryloylpyrrolidin-2-yl)-1,3,4-oxadiazol-2-yl)methyl)-6,10-dimethyl-1-(6-methyl-4-(trifluoromethyl)pyridin-2-yl)-1,3a,4,5,10,11a-hexahydro-2H-benzo[b]pyrrolo[2,3-f][1,4]diazocine-2,11(3H)-dione] |
| 60000 M⁻¹ s⁻¹ | C=CC(=O)N1CCC[C@H]1c1nnc(CN2C[C@H]3CC(=O)N(c4cc(C(F)(F)F)cc(C)n4)[C@@H]3C(=O)N(C)c3cccc(C)c32)o1 [Example 273, (3aR,11aS)-5-((5-((S)-1-acryloylpyrrolidin-2-yl)-1,3,4-oxadiazol-2-yl)methyl)-6,10-dimethyl-1-(6-methyl-4-(trifluoromethyl)pyridin-2-yl)-1,3a,4,5,10,11a-hexahydro-2H-benzo[b]pyrrolo[2,3-f][1,4]diazocine-2,11(3H)-dione] |
| 470000 M⁻¹ s⁻¹ | C=CC(=O)N1CC[C@@H]1c1nnc(CN2C[C@H]3CC(=O)N(c4cc(C(F)(F)F)cc(C)n4)[C@@H]3C(=O)N(C)c3cccc(C)c32)o1 [Example 274, (3aR,11aS)-5-((5-((R)-1-acryloylazetidin-2-yl)-1,3,4-oxadiazol-2-yl)methyl)-6,10-dimethyl-1-(6-methyl-4-(trifluoromethyl)pyridin-2-yl)-1,3a,4,5,10,11a-hexahydro-2H-benzo[b]pyrrolo[2,3-f][1,4]diazocine-2,11(3H)-dione] |
| 800000 M⁻¹ s⁻¹ | C=CC(=O)N1CC[C@H]1c1nnc(CN2C[C@H]3CC(=O)N(c4cc(C(F)(F)F)cc(C)n4)[C@@H]3C(=O)N(C)c3cccc(C)c32)o1 [Example 275, (3aR,11aS)-5-((5-((S)-1-acryloylazetidin-2-yl)-1,3,4-oxadiazol-2-yl)methyl)-6,10-dimethyl-1-(6-methyl-4-(trifluoromethyl)pyridin-2-yl)-1,3a,4,5,10,11a-hexahydro-2H-benzo[b]pyrrolo[2,3-f][1,4]diazocine-2,11(3H)-dione] |
| 1.76e+06 M⁻¹ s⁻¹ | C=CC(=O)N1Cc2ccc(CN3C[C@H]4CC(=O)N(c5cc(C(F)(F)F)cc(C)n5)[C@@H]4C(=O)N(C)c4cccc(Cl)c43)nc2C1 [Example 276, (3aR,11aS)-5-((6-acryloyl-6,7-dihydro-5H-pyrrolo[3,4-b]pyridin-2-yl)methyl)-6-chloro-10-methyl-1-(6-methyl-4-(trifluoromethyl)pyridin-2-yl)-1,3a,4,5,10,11a-hexahydro-2H-benzo[b]pyrrolo[2,3-f][1,4]diazocine-2,11(3H)-dione] |
